For data set [1], the system named is 4T1 cells [4T1细胞]. Description: In vitro cytotoxicity test (MTT, 72 h). Particulars: Mus musculus, 4T1, 72 h.
For data set [2], the system named is 4T1 cells [4T1细胞].

Each structure is given as a SMILES string. Converted amounts (≈) assume the structure as drawn.

Usually IC50 stands for the concentration needed to halve the response being measured. A high value points to weaker potency. As for `CC(=O)O[C@@]12CO[C@@H]1C[C@H](O)[C@@]1(C)C(=O)[C@H](O)C3=C(C)[C@@H](OC(=O)[C@H](O)[C@@H](NC(=O)OC(C)(C)C)c4ccccc4)C[C@@](O)([C@@H](OC(=O)c4ccccc4)[C@H]21)C3(C)C` [多西他赛], the IC50 in data set [1] worked out at 0.0265 ± 0.00136 mg/L (≈ 0.0328 µM).

For `CCCCCC=CCC=CCCCCCCCC(=O)OC(C(=O)OC1CC2(O)C(OC(=O)c3ccccc3)C3C4(OC(C)=O)COC4CC(O)C3(C)C(=O)C(O)C(=C1C)C2(C)C)C(NC(=O)OC(C)(C)C)c1ccccc1` (stereo not drawn) [多西他赛亚油酸酯], the IC50 in data set [1] turned out to be 0.0136 ± 0.00204 mg/L (≈ 0.0127 µM). Also, the “cytotoxicity (in words)” value in data set [2] was “细胞毒性强于多西他赛”.
